Measurements reported in article PMC4493117, “Characterization of the Prokaryotic Sodium Channel NavSp Pore with a Microfluidic Bilayer Platform” (PLoS ONE, 2015).

Target: NavSp pore (Ruegeria pomeroyi, UniProt Q6TMY8)
Conditions: drug added to both sides of bilayer; 0.5 M NaCl, 10 mM HEPES, pH 7.4; room temperature; POPE:POPG 1:1

Sequence of NavSp pore (Q6TMY8 114-258 limits assumed): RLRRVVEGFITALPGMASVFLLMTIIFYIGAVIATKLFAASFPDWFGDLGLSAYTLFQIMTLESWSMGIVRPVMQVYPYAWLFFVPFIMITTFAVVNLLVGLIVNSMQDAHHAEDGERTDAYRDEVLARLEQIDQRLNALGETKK

## COC(=O)C1=C(C)NC(C)=C(C(=O)OC)C1c1ccccc1[N+](=O)[O-] [nifedipine]
  IC50: 2950 nM
